Assay results from US20150125904A1, “PROBE INCORPORATION MEDIATED BY ENZYMES” (Massachusetts Institute of Technology, priority 2012, published 2015).
Read-outs that look alike come from different tables or passages of the source.

Experiments:
[1] = system: LAP-LDL receptor on HEK cells; test: Comparison of Diels-Alder cycloaddition, CuAAC and strain-promoted cycloaddition for cell surface fluorescence labeling; format: cell-based, human; conditions: 3 min staining after TCO2 ligation
Description: (A) HEK cells expressing LAP-LDL receptor and a nuclear cyan fluorescent protein transfection marker (shown in cyan, overlaid with DIC) were labeled in two steps, using three methodologies, as indicated by the scheme: Diels-Alder cycloaddition (left), CuAAC (middle), and strain-promoted cycloaddition (right). Fernandez-Suarez et al., Nature Biotechnology 2007, 25, 1483-1487. For the latter two, LAP was first derivatized with 8-azidooctanoic acid under conditions known to give quantitative yield. DIBO is dibenzylcyclooctyne. In all three cases, the second step was performed for 3 min., using the indicated Alexa 647 conjugates at the three indicated concentrations. Cells were imaged live after brief rinsing. Specific fluorescence staining with 1 μM DIBO-Alexa 647 was detectable (shown with enhanced contrast in inset). (B) Comparing cell viability after cell surface fluorescence labeling. Chinese hamster ovary cells expressing LAP-LDL receptor were labeled using Diels-Alder cycloaddition or CuAAC under the indicated conditions. Cell viability was then measured in triplicate, with untransfected and untreated cells defined as 100% viable. […]
These were previously determined, by subsequent lipoic acid pulse labeling, to give almost quantitative yield of 8-azidooctanoic acid ligation. […]

W37TLplA = molecular target: T1, W37TLplA (Escherichia coli, UniProt P32099, W38T); test: UPLC screening of LplA single mutants for Pacific Blue ligation; format: biochemical, E. coli; conditions: after 12 hours, 500 μM probe
T1 construct: His6; made in house; host or cells: E. coli (bacterial lysate, not purified)
Experimental: In vitro ligation reactions were assembled as described in the main text with the following modifications. 5 μL bacterial lysate containing LplA was used in place of purified enzyme. Total reaction volume was 25 μL. Instead of LAP peptide, 150 μM purified E2p protein (see Uttamapinant, et al., 2010) was used. Reactions proceeded overnight at 30° C. with 500 μM probe. Ultra Performance Liquid Chromatography (UPLC) was used to detect any product formation. All products were confirmed by in-line mass spectrometry.

W37VLplA [2] = molecular target: T2, W37VLplA (Escherichia coli, UniProt P32099, W38V); test: In vitro coumarin ligation onto LAP2 (HPLC); format: biochemical, E. coli; conditions: 500 μM coumarin probe, 2 μM W37VLplA, 55-minute reaction
Experimental: Reactions were assembled as follows: 2 μM LplA enzyme, 150 μM LAP2 synthetic peptide (sequence: […]; see Puthenveetil et al., J. Am. Chem. Soc. 2009, 131 16430-16438), 500 μM 7-aminocoumarin 6 probe, 5 mM ATP, and 5 mM Mg(OAc)2 in 25 mM Na2HPO4 pH 7.2. The reaction mixture was incubated at 30° C. for 2 hours and quenched with EDTA (final concentration 100 mM). The mixture was analyzed on a Varian Prostar HPLC using a reverse-phase C18 Microsorb-MV 100 column (250×4.6 mm). Chromatograms were recorded at 210 nm. We used a 10-minute gradient of 30-60% acetonitrile in water with 0.1% trifluoroacetic acid under 1 mL/minute flow rate.
2 μM ^W37VLplA and 500 μM coumarin probe were used in one case. Aliquots from the reaction were collected and quenched with EDTA over 55 minutes. For the other case, 1 μM ^W37VLplA and 100 μM coumarin probe were used, and aliquots were collected and quenched over 70 minutes. After HPLC analysis, percent product conversions were calculated by dividing the product peak area by the sum of (product+starting material) peak areas.

[3] = Photophysical properties, pKa and pH profiles of coumarin probes; format: physicochemical; conditions: 150 μM solutions, pH 3-10 buffers
Experimental: Fluorescence emission was recorded for 150 μM solutions, using a TECAN Safire Microplate Reader and a plastic transparent-bottomed 384-well plate (Greiner). pH 3-6 buffers were prepared by mixing different ratios of 0.1M acetic acid and 0.1M sodium acetate-trihydrate solutions. pH 7-10 buffers were prepared by mixing different ratios of 0.1M Na2HPO4 and either 0.1M HCl (for pH 7-9 buffers) or 0.1M NaOH (for pH 10 buffer). Final pH adjustments in all buffer solutions were made by adding small amount of 1M HCl or 1M NaOH.

W37VLplA [4] = molecular target: T2, W37VLplA; conditions: previously determined, cited from earlier work
[5] = cited from earlier work
Trp37→Ile LplA = Trp37→Ile LplA (Escherichia coli, UniProt P32099, W38I); conditions: 30 min reaction, 500 μM probe; normalized to TCO2/Trp37→Val
Experimental: (§1) LplA protein was purified as previously described2 and stored at −80° C. in 20 mM Tris-HCl, pH 7.5 supplementated with 10% v/v glycerol. Reactions were quenched with 30 mM EDTA (final concentration) and resolved by HPLC (Varian ProStar) on a C-18 column using a linear gradient of 25-60% acetonitrile in H2O (with 0.1% v/v trifluoroacetic acid) over 14 minutes. Species were detected at 210 nm absorbance. Peaks corresponding to LAP and its trans-cyclooctene adducts were confirmed by ESI mass spectrometry. The extent of conversion was calculated from ratios of peak areas, neglecting minor extinction coefficient changes to LAP due to trans-cyclooctene ligation.
(§2) The relative abilities of wild-type and mutant ligases to ligate TCO1-3 onto LplA acceptor peptide (LAP) were measured by an HPLC assay after 30 min. reaction time. […] Errors, ±1 s. d.

[6] = molecular target: Trp37→Val LplA (W37VLplA) (Escherichia coli, UniProt P32099, W38V); conditions: 30 min reaction, 500 μM probe; normalized to TCO2/Trp37→Val
Experimental: as §1, §2

Trp37→Gly LplA = Trp37→Gly LplA (Escherichia coli, UniProt P32099, W38G); conditions: 30 min reaction, 500 μM probe; normalized to TCO2/Trp37→Val
Experimental: as §1, §2

[7] = Photophysical properties of phycoerythrin and AlexaFluor 568; format: physicochemical

T2 sequence (P32099 2-338 W38V): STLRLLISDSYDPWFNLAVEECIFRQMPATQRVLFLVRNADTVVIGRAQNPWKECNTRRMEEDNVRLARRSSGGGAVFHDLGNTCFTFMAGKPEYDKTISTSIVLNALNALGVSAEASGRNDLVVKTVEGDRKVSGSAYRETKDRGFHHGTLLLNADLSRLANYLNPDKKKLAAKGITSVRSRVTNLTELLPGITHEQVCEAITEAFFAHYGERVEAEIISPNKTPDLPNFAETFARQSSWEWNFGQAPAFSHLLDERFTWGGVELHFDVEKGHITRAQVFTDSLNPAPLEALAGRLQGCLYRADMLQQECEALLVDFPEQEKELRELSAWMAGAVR
Trp37→Val LplA (W37VLplA), sequence (P32099 2-338 W38V): as above
T1 sequence (P32099 2-338 W38T): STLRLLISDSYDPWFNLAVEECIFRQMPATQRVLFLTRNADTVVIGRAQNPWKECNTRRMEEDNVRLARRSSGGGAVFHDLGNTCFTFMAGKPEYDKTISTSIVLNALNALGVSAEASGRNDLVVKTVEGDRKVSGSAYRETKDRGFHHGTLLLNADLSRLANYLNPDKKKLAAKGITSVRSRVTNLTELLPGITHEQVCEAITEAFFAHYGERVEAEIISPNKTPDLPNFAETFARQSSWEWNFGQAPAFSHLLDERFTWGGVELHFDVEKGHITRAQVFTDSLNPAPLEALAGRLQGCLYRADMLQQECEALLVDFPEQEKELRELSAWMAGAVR
Trp37→Gly LplA, sequence (P32099 2-338 W38G): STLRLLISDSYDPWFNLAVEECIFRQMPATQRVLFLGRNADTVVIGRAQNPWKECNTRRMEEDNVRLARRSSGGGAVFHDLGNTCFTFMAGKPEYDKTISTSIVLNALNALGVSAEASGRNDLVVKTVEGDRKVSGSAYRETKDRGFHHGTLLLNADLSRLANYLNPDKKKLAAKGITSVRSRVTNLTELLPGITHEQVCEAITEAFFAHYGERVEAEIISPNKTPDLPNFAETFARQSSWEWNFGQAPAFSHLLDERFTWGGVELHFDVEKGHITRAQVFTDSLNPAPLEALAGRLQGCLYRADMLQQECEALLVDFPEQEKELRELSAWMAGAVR
Trp37→Ile LplA, sequence (P32099 2-338 W38I): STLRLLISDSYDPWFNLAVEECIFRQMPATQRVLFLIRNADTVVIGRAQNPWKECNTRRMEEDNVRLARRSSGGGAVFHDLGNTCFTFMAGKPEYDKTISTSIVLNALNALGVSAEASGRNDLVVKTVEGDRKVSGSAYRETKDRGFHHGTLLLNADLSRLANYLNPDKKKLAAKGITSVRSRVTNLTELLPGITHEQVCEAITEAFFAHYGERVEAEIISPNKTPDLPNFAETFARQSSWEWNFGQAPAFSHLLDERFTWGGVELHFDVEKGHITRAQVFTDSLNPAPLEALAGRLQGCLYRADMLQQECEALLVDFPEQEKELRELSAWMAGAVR

In the case of “Aminobenzyltetrazine Alexa Fluor 647 [Tz1-Alexa 647]”, the “dye concentration giving specific signal” value [1] is reported as 10 nM.
In the case of “6,8-difluoro-7-hydroxycoumarin [Pacific Blue]”, the “conversion to ligation product” value (W37TLplA) is reported as roughly 50%.
In the case of `O=C(O)CCCCNC(=O)c1cc2ccc(O)cc2oc1=O` [7-hydroxycoumarin 2], the “LAP converted to product” value (W37VLplA [2]) is given as 46%, the “pH dependence of fluorescence” value [3] is given as “drops sharply at pH values <6.5” and the Km (W37VLplA [4]) is given as 56 ± 20 µM. For the same compound, the kcat (W37VLplA [4]) was 0.019 s⁻¹, the kcat (W37VLplA [4]; listed as HC4) was 0.019 ± 0.004 s⁻¹ and the emission maximum ([5]; Sun, et al.) was 448 nm. The excitation maximum ([5]; Sun, et al.) was 386 nm, the extinction coefficient ([5]; Sun, et al.) was 36,700 M^−1 cm^−1 and the “pKa of 7-OH substituent” value [5] was 7.5.
With `O=C(O)CCCNC(=O)OC[C@H]1[C@@H]2CC/C=C/CC[C@@H]21` [TCO3, (rel-1R,8S,9R,4E)-Bicyclo[6.1.0]non-4-ene-9-ylmethyl-N-butyric acid carbamate] the “Ligation efficiency (average, normalized product percentage), Trp37→Ile” value (Trp37→Ile LplA) was 6.0 ± 0.6%, the “Ligation efficiency (average, normalized product percentage), Trp37→Val” value [6] was 6.6 ± 0.6% and the “Ligation efficiency (average, normalized product percentage), Trp37→Gly” value (Trp37→Gly LplA) was 22.6 ± 2.0%.
With R-phycoerythrin the “brightness relative to AlexaFluor 568” value [7] was greater than 25 times.
